{"source": "ChEMBL document CHEMBL5678796", "about": "“A highly potent and selective farnesyltransferase inhibitor ABT-100 in preclinical studies” (Anticancer Drugs, 2005)", "key": {"[1]": {"test_system": "Mus musculus", "assay": "Antiangiogenic activity in human recombinant VEGF-stimulated CF1 mouse corneal model assessed as inhibition of new blood growth area at 25 mg/kg, sc prestimulated with VEGF followed by compound administration and measured on day 7 by slit lamp biomicroscopic analysis relative to control", "type": "functional", "conditions": "CF1, 168 h, time 7 day"}, "[2]": {"assay": "Inhibition of FTase in human DLD-1 cells expressing moderate level of P-gp1 using Ras as substrate assessed as inhibition of substrate post-translation processing in presence of 10% FBS by immunoblot analysis", "type": "cell-based"}, "[3]": {"test_system": "Mus musculus", "assay": "Antiangiogenic activity in human recombinant VEGF-stimulated CF1 mouse corneal model assessed as inhibition of new blood growth area at 50 mg/kg, sc prestimulated with VEGF followed by compound administration and measured on day 7 by slit lamp biomicroscopic analysis relative to control", "type": "functional", "conditions": "CF1, 168 h, time 7 day"}, "[4]": {"assay": "Selectivity ratio of EC50 for inhibition of GGTase in H-Ras transformed mouse NIH3T3 cells using Rap 1A as substrate assessed as inhibition of substrate prenylation in presence of 10% bovine serum to EC50 for inhibition of FTase in H-Ras transformed mouse NIH3T3 cells using Ras as substrate assessed as inhibition of substrate prenylation in presence of 10% bovine serum", "conditions": "condition cancer"}, "[5]": {"test_system": "HCT-116", "assay": "Antitumor activity against human HCT-116 cells xenografted in nu/nu CD1 mouse assessed as reduction in tumor volume by measuring tumor to control ratio at 6.25 mg/kg, sc preinoculated with cells for 5 days followed by once daily compound administration for 21 days and measured on day 25", "type": "functional", "conditions": "time 25 day"}, "[6]": {"test_system": "HCT-116", "assay": "Antitumor activity against human HCT-116 cells xenografted in nu/nu CD1 mouse assessed as increase in life span at 50 mg/kg, sc preinoculated with cells for 5 days followed by once every 2 days compound administration for 11 times and measured on day 22 relative to vehicle in time to 1 cm3 tumor", "type": "functional", "conditions": "HCT-116, 528 h, time 22 day"}, "[7]": {"test_system": "HCT-116", "assay": "Antitumor activity against human HCT-116 cells xenografted in nu/nu CD1 mouse assessed as tumor volume at 25 mg/kg, sc preinoculated with cells for 5 days followed by once daily compound administration for 21 days and measured on day 25 (reference value: 1569 +/- 165 mm^3)", "type": "functional", "conditions": "time 25 day"}, "[8]": {"test_system": "HCT-116", "assay": "Antitumor activity against human HCT-116 cells xenografted in nu/nu CD1 mouse assessed as tumor volume at 50 mg/kg, sc preinoculated with cells for 14 days followed by once daily compound administration for 21 days and measured on day 40 (reference value: 2973 +/- 593 mm^3)", "type": "functional", "conditions": "time 40 day"}, "[9]": {"test_system": "HCT-116", "assay": "Antitumor activity against human HCT-116 cells xenografted in nu/nu CD1 mouse assessed as reduction in tumor volume by measuring test to control ratio at 50 mg/kg, sc preinoculated with cells for 14 days followed by once daily compound administration for 21 days and measured on day 40", "type": "functional", "conditions": "time 40 day"}, "[10]": {"assay": "Ratio of EC50 for inhibition of FTase in human DLD-1 cells expressing moderate level of P-gp1 using Ras as substrate assessed as inhibition of substrate post-translation processing in presence of 20% human serum to EC50 for inhibition of FTase in human DLD-1 cells expressing moderate level of P-gp1 using Ras as substrate assessed as inhibition of substrate post-translation processing in presence …", "conditions": "condition cancer"}, "[11]": {"assay": "Inhibition of GGTase in H-Ras transformed mouse NIH3T3 cells using Rap 1A as substrate assessed as inhibition of substrate prenylation in presence of 10% bovine serum by immunoblot analysis", "type": "cell-based"}, "[12]": {"assay": "Inhibition of recombinant bovine GGTase I incubated for 30 min sin presence of [3H]FPP by SPA based Topcount scintillation plate reader analysis", "set-up": "species or system Bos taurus"}, "[13]": {"assay": "Volume of distribution in dog at 2.5 mg/kg, iv", "type": "ADME, organism-based, Canis lupus familiaris", "conditions": "in vivo"}, "[14]": {"test_system": "HCT-116", "assay": "Inhibition of VEGF mRNA expression in human HCT-116 cells incubated for 72 hrs by qRT-PCR analysis", "type": "functional, cell-based", "conditions": "dose 1-30 µmol/L"}, "[15]": {"assay": "Oral bioavailability in rat at 25 mg/kg", "type": "ADME, organism-based", "conditions": "in vivo"}, "[16]": {"test_system": "HCT-116", "assay": "Antitumor activity against human HCT-116 cells xenografted in nu/nu CD1 mouse assessed as increase in life span at 6.25 mg/kg, sc preinoculated with cells for 5 days followed by once daily compound administration for 21 days and measured on day 25 relative to vehicle in time to 1 cm^3 tumor", "type": "functional", "conditions": "HCT-116, 600 h, time 25 day"}, "[17]": {"test_system": "HCT-116", "assay": "Antitumor activity against human HCT-116 cells xenografted in nu/nu CD1 mouse assessed as increase in life span at 100 mg/kg, sc preinoculated with cells for 5 days followed by once every 2 days compound administration for 11 times and measured on day 22 relative to vehicle in time to 1 cm3 tumor", "type": "functional", "conditions": "HCT-116, 528 h, time 22 day"}, "[18]": {"assay": "Inhibition of FTase in human HCT-116 cells expressing low level of P-gp1 using Ras as substrate assessed as inhibition of substrate post-translation processing in presence of 20% human serum by immunoblot analysis", "type": "cell-based"}, "[19]": {"assay": "AUC in dog at 2.5 mg/kg, po", "type": "ADME, organism-based, Canis lupus familiaris", "conditions": "in vivo"}, "[20]": {"test_system": "HCT-116", "assay": "Antitumor activity against human HCT-116 cells xenografted in nu/nu CD1 mouse assessed as increase in life span at 50 mg/kg, sc preinoculated with cells for 14 days followed by once daily compound administration for 21 days and measured on day 40 relative to vehicle in time to 1 cm^3 tumor", "type": "functional", "conditions": "HCT-116, 960 h, time 40 day"}, "[21]": {"assay": "Clearance in rat at 5 mg/kg, iv", "type": "ADME, organism-based", "conditions": "in vivo"}, "[22]": {"assay": "Oral bioavailability in rat at 5 mg/kg", "type": "ADME, organism-based", "conditions": "in vivo"}, "[23]": {"assay": "Oral bioavailability in dog at 2.5 mg/kg", "type": "ADME, organism-based, Canis lupus familiaris", "conditions": "in vivo"}, "[24]": {"test_system": "HCT-116", "assay": "Antitumor activity against human HCT-116 cells xenografted in nu/nu CD1 mouse assessed as tumor volume at 50 mg/kg, sc preinoculated with cells for 5 days followed by once every 2 days compound administration for 11 times and measured on day 22 (reference value: 1557 +/- 370 mm^3)", "type": "functional", "conditions": "time 22 day"}, "[25]": {"test_system": "Mus musculus", "assay": "Antiangiogenic activity in human recombinant bFGF-stimulated CF1 mouse corneal model assessed as inhibition of new blood growth area at 25 mg/kg, sc prestimulated with bFGF followed by compound administration and measured on day 5 by slit lamp biomicroscopic analysis relative to control", "type": "functional", "conditions": "CF1, 120 h, time 5 day"}, "[26]": {"assay": "Cmax in dog at 2.5 mg/kg, po", "type": "ADME, organism-based, Canis lupus familiaris", "conditions": "in vivo"}, "[27]": {"test_system": "HCT-116", "assay": "Antitumor activity against human HCT-116 cells xenografted in nu/nu CD1 mouse assessed as increase in life span at 25 mg/kg, sc preinoculated with cells for 5 days followed by once daily compound administration for 21 days and measured on day 25 relative to vehicle in time to 1 cm^3 tumor", "type": "functional", "conditions": "HCT-116, 600 h, time 25 day"}, "[28]": {"assay": "Inhibition of FTase in human HCT-15 cells expressing high level of P-gp1 using Ras as substrate assessed as inhibition of substrate post-translation processing in presence of 10% FBS by immunoblot analysis", "type": "cell-based"}, "[29]": {"assay": "AUC in dog at 2.5 mg/kg, iv", "type": "ADME, organism-based, Canis lupus familiaris", "conditions": "in vivo"}, "[30]": {"assay": "Clearance in dog at 2.5 mg/kg, iv", "type": "ADME, organism-based, Canis lupus familiaris", "conditions": "in vivo"}, "[31]": {"species_on_record": "Bos taurus", "assay": "Selectivity index, ratio of IC50 for inhibition of bovine GGTase 1 to IC50 for inhibition of recombinant bovine FTase"}, "[32]": {"test_system": "HCT-116", "assay": "Antitumor activity against human HCT-116 cells xenografted in nu/nu CD1 mouse assessed as tumor volume at 6.25 mg/kg, sc preinoculated with cells for 5 days followed by once daily compound administration for 21 days and measured on day 25 (reference value: 1569 +/- 165 mm^3)", "type": "functional", "conditions": "time 25 day"}}, "data": [{"compound": "Cn1cncc1[C@](O)(COc1ccc(C#N)cc1-c1ccc(OC(F)(F)F)cc1)c1ccc(C#N)cc1", "note": "[ABT-100]", "values": [{"measurement": "inhibition in vivo at 25 mg/kg", "setting": "[1]", "result": 8, "unit": "%"}, {"measurement": "EC50", "setting": "[2]", "result": 0.26, "unit": "nM"}, {"measurement": "inhibition in vivo at 50 mg/kg", "setting": "[3]", "result": 25, "unit": "%"}, {"measurement": "Ratio EC50", "setting": "[4]", "result": ">41000"}, {"measurement": "T/C", "setting": "[5]", "result": 56, "unit": "%"}, {"measurement": "ILS at 50 mg/kg", "setting": "[6]", "result": 32, "unit": "%"}, {"measurement": "Activity", "setting": "[7]", "result": 553, "unit": "mm3"}, {"measurement": "Activity", "setting": "[8]", "result": 1530, "unit": "mm3"}, {"measurement": "T/C", "setting": "[9]", "result": 45, "unit": "%"}, {"measurement": "Ratio EC50", "setting": "[10]", "result": 1.5}, {"measurement": "EC50", "setting": "[11]", "result": "> 30000", "unit": "nM"}, {"measurement": "IC50", "setting": "[12]", "result": "> 10000", "unit": "nM"}, {"measurement": "Vd", "setting": "[13]", "result": 3.3, "unit": "L/kg"}, {"measurement": "inhibition", "setting": "[14]", "result": "Dose-Dependent Effect"}, {"measurement": "bioavailability", "setting": "[15]", "result": 30.7, "unit": "%"}, {"measurement": "ILS at 6.25 mg/kg", "setting": "[16]", "result": 50, "unit": "%"}, {"measurement": "ILS at 100 mg/kg", "setting": "[17]", "result": 32, "unit": "%"}, {"measurement": "EC50", "setting": "[18]", "result": 1.7, "unit": "nM"}, {"measurement": "AUC", "setting": "[19]", "result": 2840, "unit": "ng·h/mL"}, {"measurement": "ILS at 50 mg/kg", "setting": "[20]", "result": 52, "unit": "%"}, {"measurement": "clearance", "setting": "[21]", "result": 16.7, "unit": "mL/min/kg"}, {"measurement": "bioavailability", "setting": "[22]", "result": 15.1, "unit": "%"}, {"measurement": "bioavailability", "setting": "[23]", "result": 35.1, "unit": "%"}, {"measurement": "Activity", "setting": "[24]", "result": 873, "unit": "mm3"}, {"measurement": "inhibition in vivo at 25 mg/kg", "setting": "[25]", "result": 32, "unit": "%"}, {"measurement": "Cmax", "setting": "[26]", "result": 280, "unit": "ng/mL"}, {"measurement": "ILS at 25 mg/kg", "setting": "[27]", "result": 100, "unit": "%"}, {"measurement": "EC50", "setting": "[28]", "result": 0.2, "unit": "nM"}, {"measurement": "AUC", "setting": "[29]", "result": 7700, "unit": "ng·h/mL"}, {"measurement": "clearance", "setting": "[30]", "result": 5.67, "unit": "mL/min/kg"}, {"measurement": "Ratio IC50", "setting": "[31]", "result": "> 100000"}, {"measurement": "Activity", "setting": "[32]", "result": 899, "unit": "mm3"}]}]}
